The text below walks through data of patent US20230026869A1, “CRYSTAL FORM OF NUCLEOPROTEIN INHIBITOR AND USE THEREOF” (CHIA TAI TIANQING PHARMACEUTICAL GROUP CO., LTD., priority 2019, published 2023).

The nature of series [1]: Metabolic stability in liver microsomes of SD rats. It is filed as in vitro ADME. Particulars: rat. The procedure:
Objective: The metabolic stability of the tested compound of formula (I) in liver microsomes of rats, beagle dogs and cynomolgus monkeys was determined. […]

Series [2] is described as follows: Pharmacokinetic study in Balb/c mice by oral administration and intravenous injection. It is filed as in vivo. Particulars: mouse, Balb/c female mice, plasma. The procedure:
Pharmacokinetic Study of the Test Compound in Balb/c Mice by Oral Administration and Intravenous Injection: The test compound was mixed with a solution containing dimethyl sulfoxide (101), polyethylene glycol 400 (600%) and water (300), and the mixture was vortexed and sonicated to prepare a 0.2 mg/mL clear solution, which was filtered through a millipore filter for later use. Balb/c female mice aged 7 to 10 weeks were intravenously injected with the candidate compound solution at a dose of 1 mg/kg. The test compound was mixed with an aqueous solution containing 10% polyoxyethylene stearate, and the mixture was vortexed and sonicated to prepare a 0.3 mg/mL clear solution for later use. Balb/c female mice aged 7 to 10 weeks were orally administered with the candidate compound solution at a dose of 3 mg/kg. Whole-blood was collected and plasma was prepared. Drug concentration was analyzed by LC-MS/MS and pharmacokinetic parameters were calculated with Phoenix WinNonlin software.

Series [3] in a line: Metabolic stability in human liver microsomes. The class given is in vitro ADME. The procedure: Objective: The metabolic stability of the test compound in CD-1 mice and human liver microsomes was determined. […]
A general note: Microsomes from liver hold many membrane-bound enzymes, among them those of drug oxidation.

In the case of `CC1(NC(=O)C(=O)c2c(Cl)c(C(=O)Nc3cc(F)c(F)c(F)c3)c3n2CCC3)CCC(CC(=O)O)CC1` (centres unmarked) [Compound of formula (I)], the intrinsic clearance (microsomal CLint) (usually the rate of metabolic loss divided by the concentration) at 1 μM in series [1] (SD, microsomes) was less than 9.6 µL/min/mg; in series [3] (human, microsomes), less than 9.6 µL/min/mg. Further, the intrinsic clearance (CLint scaled) (in general, a measure of how fast metabolising enzymes remove a compound, apart from limits set by blood flow) at 1 μM in series [1] (SD rats liver microsomes) was less than 17.3 mL/min/kg; in series [3] (human liver microsomes) it was less than 8.6 mL/min/kg. Also, the half-life at 1 μM in series [1] (SD rats liver microsomes, 1 μM compound, 0.5 mg/mL) was greater than 2.42 h; in series [3] (Human liver microsomes, 1 μM compound, 0.5 mg/mL) it was greater than 2.42 h. In addition, the AUC in series [2] (3 mg/kg, PO 3 mpk, read-out: Area under the plasma concentration-time curve AUC) turned out to be 2.27 µM·h. In addition, in series [2] (3 mg/kg, PO 3 mpk, read-out: Peak concentration Cmax), the Cmax came to 1480 nM. Further, the Tmax (usually the time from dosing to the highest level) in series [2] (3 mg/kg, PO 3 mpk, read-out: Peak time Tmax) is 0.5 h. For the same compound, the bioavailability (usually dose-corrected exposure relative to a reference, in per cent) in series [2] (3 mg/kg, PO 3 mpk vs IV 1 mg/kg, read-out: Bioavailability (F %)) came out at 51%. In series [2] (IV 1 mg/kg, read-out: Apparent volume of distribution (Vdss)), the Vd came to 3.1 L/kg. Moreover, the AUC(0-t) in series [2] (IV 1 mg/kg, read-out: Area under the plasma concentration-time curve AUC0-24 h) was determined as 1.49 µM·h. Also, in series [2] (IV 1 mg/kg, read-out: Clearance (CL)), the clearance is 20 mL/min/kg. Moreover, the half-life in series [2] (IV 1 mg/kg, read-out: Half-life T1/2 (converted)) was 1.95 h.
